Test results taken from US20220395472A1 (Dermavant Sciences GmbH, priority 2021, published 2022).

Test system: adults with plaque psoriasis
Assay: Long-term open-label extension study (PSOARING 3): Physician Global Assessment (PGA), treatment episodes, treatment success, remittive effect
Format: in vivo, human
Procedure: This extension study consisted of up to 40 weeks of treatment and a 4 week, safety follow up period.
At the completion of the Week 12 visit of the DB, pivotal Phase 3 study, eligibility of the subjects opting to enroll in this extension study was confirmed. Study visits during the treatment period for all subjects occurred every 4 weeks (±3 days). A phone call was performed at Week 2 (Day 15). Unscheduled visits may have occurred, as needed. Subjects who withdrew from this study before Week 40 returned to the study center for an Early Termination visit. The total duration of this extension study participation was 44 weeks. Subjects in this study were treated as follows based on their PGA score from the Week 12 visit in the DB, pivotal Phase 3 study (Study DMVT 505 3001 or Study DMVT 505 3002).
The PGA was used to assess the primary efficacy endpoint in this study. The PGA is a clinical tool for assessing the current state/severity of a subject's psoriasis at a given time point. It is a static, 5 point, morphological assessment of overall disease severity, as determined by the Investigator, using the clinical characteristics of erythema, scaling, and plaque thickness/elevation as guidelines; higher PGA scores represent more severe disease (0=clear, 1=almost clear, 2=mild, 3=moderate, and 4=severe). The BSA affected was not considered in scoring of the PGA. Variations of the PGA are frequently used in clinical studies because it is a simple assessment, similar to those used in clinical practice. The PGA was performed first, prior to the % BSA, PASI, and LTS assessments.
Time to event parameters, such as the time from treatment success to subsequent worsening (PGA≥2) or duration of treatment episode, were summarized by the Kaplan Meier product limit method using OC.

[1] = Baseline PGA = 1, Tapinarof (Pivotal) group
[2] = Baseline PGA = 1, Vehicle (Pivotal) group
[3] = Baseline PGA = 2, Tapinarof (Pivotal) group

CC(C)c1c(O)cc(/C=C/c2ccccc2)cc1O [Tapinarof, 3,5-Dihydroxy-4-isopropyl-trans-stilbene]
Duration of 3rd Success, Mean (SD) (Baseline PGA = 1, Overall): 15.0 (19.80) days | Duration of 3rd Success, Median (Baseline PGA = 1, Overall): 15.0 days | Duration of Last Episode, Mean (SD) (Baseline PGA = 1, Overall): 146.7 (95.87) days | Duration of Last Episode, Median (Baseline PGA = 1, Overall): 141.0 days | Duration of Last Success, Median (Baseline PGA = 1, Overall): 90.0 days | Total Duration of Treatment Episodes, Mean (SD) (Baseline PGA = 1, Overall): 165.9 (90.32) days | Total Duration of Treatment Episodes, Median (Baseline PGA = 1, Overall): 193.0 days | Total Duration of Treatment Success, Mean (SD) (Baseline PGA = 1, Overall): 124.5 (78.53) days | Total Duration of Treatment Success, Median (Baseline PGA = 1, Overall): 120.0 days | Average Duration of Episodes, Mean (SD) [1]: 138.9 (94.99) days | Average Duration of Episodes, Median [1]: 112.0 days | Average Duration of Treatment Success, Mean (SD) [1]: 106.8 (76.36) days | Average Duration of Treatment Success, Median [1]: 92.5 days | Duration of 1st Episode, Mean (SD) [1]: 132.6 (99.69) days | Duration of 1st Episode, Median [1]: 85.5 days | Duration of 1st Success, Mean (SD) [1]: 106.3 (77.57) days | Duration of 1st Success, Median [1]: 86.0 days | Duration of 2nd Episode, Mean (SD) [1]: 97.9 (62.19) days | Duration of 2nd Episode, Median [1]: 83.0 days | Duration of 2nd Success, Mean (SD) [1]: 71.6 (58.68) days | Duration of 2nd Success, Median [1]: 52.0 days | Duration of 3rd Episode, Mean (SD) [1]: 54.9 (56.83) days | Duration of 3rd Episode, Median [1]: 28.0 days | Duration of 3rd Success, Mean (SD) [1]: 15.0 (19.80) days | Duration of 3rd Success, Median [1]: 15.0 days | Duration of Last Episode, Mean (SD) [1]: 145.2 (96.38) days | Duration of Last Episode, Median [1]: 144.0 days | Duration of Last Success, Mean (SD) [1]: 107.2 (79.80) days | Duration of Last Success, Median [1]: 85.5 days | Total Duration of Treatment Episodes, Mean (SD) [1]: 165.9 (90.68) days | Total Duration of Treatment Episodes, Median [1]: 194.5 days | Total Duration of Treatment Success, Mean (SD) [1]: 123.7 (78.29) days | Total Duration of Treatment Success, Median [1]: 116.5 days | Average Duration of Episodes, Mean (SD) [2]: 150.0 (97.54) days | Average Duration of Episodes, Median [2]: 112.0 days | Average Duration of Treatment Success, Mean (SD) [2]: 116.9 (71.80) days | Average Duration of Treatment Success, Median [2]: 127.0 days | Duration of 1st Episode, Mean (SD) [2]: 141.1 (105.95) days | Duration of 1st Episode, Median [2]: 112.0 days | Duration of 1st Success, Mean (SD) [2]: 115.0 (71.74) days | Duration of 1st Success, Median [2]: 127.0 days | Duration of 2nd Episode, Mean (SD) [2]: 104.0 (61.27) days | Duration of 2nd Episode, Median [2]: 109.5 days | Duration of 2nd Success, Mean (SD) [2]: 144.0 (NE) days | Duration of 2nd Success, Median [2]: 144.0 days | Duration of Last Episode, Mean (SD) [2]: 159.0 (93.38) days | Duration of Last Episode, Median [2]: 134.0 days | Duration of Last Success, Mean (SD) [2]: 118.9 (72.32) days | Duration of Last Success, Median [2]: 136.0 days | Total Duration of Treatment Episodes, Mean (SD) [2]: 165.5 (89.94) days | Total Duration of Treatment Episodes, Median [2]: 140.0 days | Total Duration of Treatment Success, Mean (SD) [2]: 131.0 (85.06) days | Total Duration of Treatment Success, Median [2]: 136.0 days | Average Duration of Episodes, Mean (SD) (Baseline PGA = 2, Overall): 175.5 (93.95) days | Average Duration of Episodes, Median (Baseline PGA = 2, Overall): 197.0 days | Average Duration of Treatment Success, Mean (SD) (Baseline PGA = 2, Overall): 83.6 (69.31) days | Average Duration of Treatment Success, Median (Baseline PGA = 2, Overall): 66.5 days | Duration of 1st Episode, Mean (SD) (Baseline PGA = 2, Overall): 177.8 (92.43) days | Duration of 1st Episode, Median (Baseline PGA = 2, Overall): 197.0 days | Duration of 1st Success, Mean (SD) (Baseline PGA = 2, Overall): 90.4 (72.34) days | Duration of 1st Success, Median (Baseline PGA = 2, Overall): 83.0 days | Duration of 2nd Episode, Mean (SD) (Baseline PGA = 2, Overall): 67.5 (52.79) days | Duration of 2nd Episode, Median (Baseline PGA = 2, Overall): 59.0 days | Duration of 2nd Success, Mean (SD) (Baseline PGA = 2, Overall): 31.9 (43.41) days | Duration of 2nd Success, Median (Baseline PGA = 2, Overall): 27.5 days | Duration of 3rd Episode, Mean (SD) (Baseline PGA = 2, Overall): 28.7 (27.50) days | Duration of 3rd Episode, Median (Baseline PGA = 2, Overall): 29.0 days | Duration of 3rd Success, Mean (SD) (Baseline PGA = 2, Overall): 29.0 (NE) days | Duration of 3rd Success, Median (Baseline PGA = 2, Overall): 29.0 days | Duration of Last Episode, Mean (SD) (Baseline PGA = 2, Overall): 173.2 (97.88) days | Duration of Last Episode, Median (Baseline PGA = 2, Overall): 197.0 days | Duration of Last Success, Mean (SD) (Baseline PGA = 2, Overall): 77.3 (73.84) days | Duration of Last Success, Median (Baseline PGA = 2, Overall): 56.0 days | Total Duration of Treatment Episodes, Mean (SD) (Baseline PGA = 2, Overall): 188.8 (87.61) days | Total Duration of Treatment Episodes, Median (Baseline PGA = 2, Overall): 200.0 days | Total Duration of Treatment Success, Mean (SD) (Baseline PGA = 2, Overall): 98.0 (74.01) days | Total Duration of Treatment Success, Median (Baseline PGA = 2, Overall): 84.0 days | Average Duration of Episodes, Mean (SD) [3]: 177.3 (95.45) days | Average Duration of Episodes, Median [3]: 197.0 days | Average Duration of Treatment Success, Mean (SD) [3]: 78.7 (71.03) days | Average Duration of Treatment Success, Median [3]: 57.0 days | Duration of 1st Episode, Mean (SD) [3]: 179.2 (94.49) days | Duration of 1st Episode, Median [3]: 197.0 days
